The values below come from paper PMC10609148 (Molecules, 2023).

Entries after “also recorded” stand apart in the source; their conditions may differ.

For data set [1], the system named is human recombinant Cb5R with a His6-tag. Description: FRET between FAD of His6-tagged Cb5R and Aβ(1–42) HiLyte-Fluor555. It counts as binding. To be noted: calculated for saturation by Aβ(1–42) HiLyte-Fluor555. On the procedure:
(§1) The assay buffer was 20 mM phosphate/0.1 mM diethylenetriaminepentaacetic acid (pH 7).

In data set [2] the target is T1, Aβ(1–42)/CaM complex (Homo sapiens, UniProt P05067).
T1 construct: purchased Merck-Sigma-Aldrich (CaM); AnaSpec (labelled Aβ peptide); host or cells: bovine brain
T1 sequence (P05067 672-713 limits assumed, one chain of several): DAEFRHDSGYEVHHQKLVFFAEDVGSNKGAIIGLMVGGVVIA
As to the kind of experiment: Antagonism of Aβ(1–42) HiLyte-Fluor555/CaM interaction (fluorescence). It counts as biochemical, Bovine brain CaM. On the procedure:
Human Aβ(1–42)-HiLyte^TM-Fluor555 was purchased from AnaSpec (Freemont, CA, USA). […] His6 was purchased from Quimigen (Madrid, Spain). Bovine brain CaM and Thrombin Clean Cleavage^TM kit were purchased from Merck-Sigma-Aldrich (Madrid, Spain).
Fluorescence measurements were performed using a Fluoromax+ fluorescence Spectrophotometer (Horiba Jobin Yvon IBH Ltd., Glasgow, UK) in quartz cuvettes of 1cm light pathlength with a total volume of 2.5 mL at room temperature (24–25 °C), with excitation and emission slits of 5 nm.
The measurements of the kinetics of fluorescence have been performed in buffer 50 mM N-[2-hydroxyethyl] piperazine-N′-[2-ethanesulfonic acid], 100 mM KCl and 50 µM CaCl2 (pH 7.05).
CaM and calbindin-D28k were added from concentrated stock solutions freshly prepared in the assay buffer used in the fluorescence measurements, such that the total added volume was always lower than 10 μL.

For data set [3], the target named is Aβ(1–42)/calbindin-D28k complex (Homo sapiens, UniProt P05067). As to the kind of experiment: Antagonism of Aβ(1–42) HiLyte-Fluor555/calbindin-D28k interaction (fluorescence). It counts as biochemical, human recombinant calbindin-D28k.
Aβ(1–42)/calbindin-D28k complex, sequence (P05067 672-713 limits assumed, one chain of several): as above
Description: The purified protein were aliquoted and conserved in 30% glycerol at −80 °C until use.
For data set [4] the following is noted: cited from earlier work. From the text: Aβ peptides bind to ganglioside-clustered raft-like membrane microdomains, which foster the formation of Aβ oligomers and fibrils in a cholesterol-dependent manner. […] Moreover, plasma membrane lipid rafts play an active role in extracellular Aβ uptake and internalization in neurons. After the uptake of extracellular Aβ(1–42) into neurons, the intracellular ...

The test system of data set [5] is human recombinant Cb5R with a His6-tag. Description: Inhibition of NADH-dependent Cb5 reductase activity of His6-tagged Cb5R. Type of data set: biochemical. To be noted: pH 7, 5 μM Cb5, 0.25 mM NADH.
Description: The reaction was started by the addition of 0.25 mM NADH after 10 min preincubation of the Cb5R in the assay medium, and initial rates were measured during periods of time ranging between 5 and 10 min, with a less than 10% drop in the Cb5 concentration in the assay cuvette. The Cb5 reductase activity was calculated from the change of absorbance at 550 nm using a differential extinction coefficient between reduced and oxidized Cb5 of 16.5 mM^−1·cm^−1, as in previous works [67, 69].
The conditions of data set [6]: 177 μM in phosphate-buffered saline; Tricine-SDS-PAGE; cited from earlier work.
Data set [7] has as its system human recombinant Cb5R with a His6-tag. As to the kind of experiment: Titration of FAD fluorescence of His6-tagged Cb5R. Type of data set: binding. On the procedure:
as §1

For the molecule “Aβ(1–42) HiLyte^TM-Fluor555: Human Aβ(1–42) with HiLyte-Fluor555 dye covalently bound to ASP1; AnaSpec”, the “quenching of donor FAD fluorescence at saturation” value in data set [1] is listed as 70 ± 7%.
One may read the IC50 as the concentration needed to halve the response being measured. Lower therefore signals inhibition by little substance. As to `N[C@@H](Cc1c[nH]cn1)C(=O)N[C@@H](Cc1c[nH]cn1)C(=O)N[C@@H](Cc1c[nH]cn1)C(=O)N[C@@H](Cc1c[nH]cn1)C(=O)N[C@@H](Cc1c[nH]cn1)C(=O)N[C@@H](Cc1c[nH]cn1)C(=O)O` [His6, hexa-histidine], the IC50 in data set [2] and in data set [3] was at most 1000 nM in each case.
Consider “Aβ(1–42): prevalent Aβ peptide found in the amyloid plaques of AD patients; supplied by StabVida and GenicBio”, for which, in data set [4], the “critical concentration that induces fibrillization” value is given as “submicromolar range”. In data set [5], the “inhibition of Cb5 reductase activity (in words)” value is on record as “potent inhibition of this activity by nanomolar Aβ(1–42) concentrations”. For the same molecule, in data set [6], the “fraction of monomers and higher molecular species” value is “almost undetectable”. For the same molecule, the “fitted maximum of FAD fluorescence increase (ΔF/F0)” value in data set [7] (Figure 5 fit, 1:1 binding, triplicate) was determined as 0.5227. Moreover, the “effect of Cb5 on the titration of FAD fluorescence” value in data set [7] (absence vs presence of 5 μM Cb5) is “the same in the absence and presence of 5 μM of Cb5; also recorded: not a significant difference”.
